Assay [1] relates to B-16 cells (malignant melanoma). Description: Malignant melanoma in mice: survival. The assay is classed as in vivo. As to the method:
In vivo studies were carried out to assess the effect of the above combination therapy, both in the solution form and in the microencapsulated form in the treatment of cancer, in order to examine any possible advantages of the microencapsulated form of the drugs. The cytokine levels (eg. TNFa and IL1β were also evaluated after treatment.
Male C57BL/6 mice weighing approximately 18-20 g were anesthetized with light ether vapor and were injected subcutaneously with B-16 cells (1×10^6 cells). Their weights, tumor size and survival rate (in days) were measured daily. The tumor size was followed by measuring the long axis of the tumor daily. The study began once the tumor size reached 0.5 cm in diameter. The animals were divided into control and treatment groups. The control groups received phosphate buffered saline, blank PLGA microspheres or blank albumin microspheres. The treated groups received the following dosing schedule: Methotrexate solution (2 mg/kg or 15 mg/kg) administered s.c. daily or every three days. The M-CSF solution (10 microgram/kg or 100 microgram/kg) administered i.p. daily. The MTX microspheres (2 mg/kg or 15 mg/kg) and/or the M-CSF microspheres (10 microgram/kg or 100 microgram/kg) administered s.c. and i.p. respectively, alone or in combination therapy.

The test system of assay [2] is OKT3 induced IL6 release. Description: Inhibition of OKT3 induced cytokine release in blood: IL6. It counts as cell-based. Conditions: human blood, OKT3 1 μg/mL, 37° C., 24 hr. The text has this:
(§1) OKT3 is a murine monoclonal antibody to the CD3 antigen of human T cells and is used to treat transplant rejection. The high incidence of adverse reactions associated with OKT3 is thought to be related to the induction of cytokines. The purpose of this study was to determine if microencapsulated (MC) neutralizing antibodies (NA) to human TNFa and IL1β which are readily phagocytized by macrophages can inhibit the release of TNFa, IL1β, and IL6 following OKT3 challenge in vitro.
(§2) Microcapsules were prepared using the method from Example 1 using an albumin matrix. Blood was collected from 10 healthy subjects and separated into aliquots for the following groups. • Grp 1) Blank MC • Grp 2) OKT3 1 μg/mL+Blank MC • Grp 3) TNFa NA 1 μg/mL+IL1β NA 2 μg/mL+OKT3 1 μg/mL. Aliquots were incubated at 37° C. for 24 hr. Blood was assayed for TNFa, […], and IL6 at 0, 2, 6, 24 hr by ELISA. C) Results

Assay [3] deals with OKT3 induced TNFa release. Description: Inhibition of OKT3 induced cytokine release in blood: TNFa. The assay is classed as cell-based. Conditions: human blood, OKT3 1 μg/mL, 37° C., 24 hr; Grp 2 OKT3+Blank MC, Grp 3 TNFa NA 1 μg/mL+IL1β NA 2 μg/mL+OKT3.
Description: as §1, §2

For `CN(Cc1cnc2nc(N)nc(N)c2n1)c1ccc(C(=O)N[C@@H](CCC(=O)O)C(=O)O)cc1` [MTX solution, methotrexate], in assay [1] (2 mg/kg s.c. every 3 days), the mean survival came out at 12.8 days. In addition, the mean survival time in assay [1] (15 mg/kg s.c. every 3 days) is on record as 14.2 days.

As for “OKT3: murine monoclonal antibody to the CD3 antigen of human T cells”, the “Peak IL6” value in assay [2] was 664 ± 60 pg/mL. The “Peak TNFa” value in assay [3] is 655 ± 71 pg/mL.

B1: M-CSF solution: Macrophage colony stimulating factor in solution (protein, UniProt P09603 33-554, looked up)
Macrophage colony-stimulating …: EEVSEYCSHMIGSGHLQSLQRLIDSQMETSCQITFEFVDQEQLKDPVCYLKKAFLLVQDIMEDTMRFRDNTPNAIAIVQLQELSLRLKSCFTKDYEEHDKACVRTFYETPLQLLEKVKNVFNETKNLLDKDWNIFSKNCNNSFAECSSQDVVTKPDCNCLYPKAIPSSDPASVSPHQPLAPSMAPVAGLTWEDSEGTEGSSLLPGEQPLHTVDPGSAKQRPPRSTCQSFEPPETPVVKDSTIGGSPQPRPSVGAFNPGMEDILDSAMGTNWVPEEASGEASEIPVPQGTELSPSRPGGGSMQTEPARPSNFLSASSPLPASAKGQQPADVTGTALPRVGPVRPTGQDWNHTPQKTDHPSALLRDPPEPGSPRISSLRPQGLSNPSTLSAQPQLSRSHSSGSVLPLGELEGRRSTRDRRSPAEPEGGPASEGAARPLPRFNSVPLTDTGHERQSEGSFSPQLQESVFHLLVPSVILVLLAVGGLLFYRWRRRSHQEPQRADSPLEQPEGSPLTQDDRQVELPV
Consider B1, for which the mean survival time in assay [1] (10 microgram/kg i.p. daily) is recorded as 14,2 days.

The values above are taken from patent US7105158B1, “Methods of administering microencapsulated materials for immune modulated diseases” (priority 1992, dated 2006).
